Results on seven compounds are retold here after patent US9453056B2, “Nucleic acid construct comprising nucleic acid derived from genome of hepatitis C virus of genotype 3a” (priority 2011, dated 2016).

Experiment [1] has as its system S310A subgenomic replicon-replicating cells (clones). The experiment in a line: Effect of antiviral agents on replicon RNA replication in S310A subgenomic replicon-replicating cells (quantification of replicon RNA copy number). Type of experiment: cell-based, hepatitis C virus of genotype 3a (S310A strain). The following applies: S310A subgenomic replicon-replicating cell clones 6, 9 and 10; inhibitor for 3 days; relative to no inhibitor (100%). The method, then: (§1) With the use of the S310A subgenomic replicon-replicating cells of the established 10 clones (Clone Nos. 1 to 10), the copy number of intracellular HCV subgenomic replicon RNA was quantified. The quantification of copy number of HCV subgenomic replicon RNA was carried out in accordance with the technique described in Takeuchi et al. (Gastroenterology, 1999, Vol. 116, pp. 636-642) and Kato et al. (Gastroenterology, 2003, Vol. 125, pp. 1808-1817).
(§2) This technique is a detection system using TaqMan probe method (PerkinElmer Inc., Applied Biosystems Inc.). Specifically, total RNA was first extracted from the S310A subgenomic replicon-replicating cells in accordance with a conventional technique. Subsequently, cDNA was synthesized from total RNA using rTth DNA polymerase, and the synthesized cDNA template was amplified via PCR using the primers: 5′-CGGGAGAGCCATAGTGG-3′ (SEQ ID NO: 24) and 5′-AGTACCACAAGGCCTTTCG-3′ (SEQ ID NO: 25). At this time, a probe having the nucleotide sequence 5′-[…]-3′ (SEQ ID NO: 26) to which a fluorescent dye, 6′-carboxy-fluorescein (FAM), had been bound at the 5′ terminus and a quencher, 6′-carboxytetramethyl-rhodamine (TAMRA), had been bound at the 3′ terminus was added. In the presence of such probe, the probe that had hybridized to the template cDNA is degraded because of 5′ exonuclease activity of the Taq polymerase during the process of amplification, the fluorescent dye is released from the probe, suppression by the quencher is released, thereby emitting fluorescence. Thus, such fluorescence was detected with ABI Prism 7700 (ParkinElmer Inc., Applied Biosystems Inc.) to quantify the copy number of HCV subgenomic replicon RNA.
The S310A subgenomic replicon-replicating cells (clones) and the JFH-1 subgenomic replicon-replicating cells were seeded on 24-well plates at a density of 5×10^4 cells/well, interferon-α (IFN-α), NS3 protease inhibitors (VX-950 (telaprevir) (Lin et al, Journal of Biological Chemistry, 2004, Vol. 279, pp. 17508-17514) and BILN-2061 (Daniel et al, Nature, 2003, Vol. 426, pp. 186-189)), and NS5B polymerase inhibitors JTK-109 (Hirashima et al, Journal of Medicinal Chemistry, 2006, Vol. 49, pp. 4721-4736) and PSI-6130 (Clark et al, Journal of Medicinal Chemistry, 2005, Vol. 48, pp. 5504-5508) were added to the wells on the following day, and the reaction was allowed to proceed for 3 days. Thereafter, the cells were recovered, total RNAs were extracted therefrom, and the copy number of HCV subgenomic replicon RNA in the cells was quantified in the same manner as in Example 4.
In each figure, the horizontal axis represents the concentration of an inhibitor added. The vertical axis represents change ratio of HCV RNA levels, which is the percentage (%) of the amount of subgenomic replicon RNA per μg of total RNA from cells when an inhibitor was added, relative to the amount of subgenomic replicon RNA per μg of total RNA from cells when no inhibitor was added (0 IU or 0 M) (defined as 100%). In the Figures, the leftmost bar (white) represents the results for the JFH-1 subgenomic replicon-replicating cells, the second bar from the left (light gray) represents the results for the S310A subgenomic replicon-replicating cell clone 6, the third bar from the left (black) represents the results for the S310A subgenomic replicon-replicating cell clone 9, and the rightmost bar (dark gray) represents the results for the S310A subgenomic replicon-replicating cell clone 10 at each inhibitor concentration.

The subject of experiment [2] is JFH-1 subgenomic replicon-replicating cells. The experiment in a line: Effect of antiviral agents on replicon RNA replication in JFH-1 subgenomic replicon-replicating cells (quantification of replicon RNA copy number). The format is cell-based, hepatitis C virus of genotype 2a (JFH-1 strain). The settings on record: inhibitor for 3 days, relative to no inhibitor (100%). The method, then:
as §1, §2
As a control for comparison, the cells into which HCV subgenomic replicon RNA of the JFH-1 strain of genotype 2a had been introduced (the JFH-1 subgenomic replicon-replicating cells) were used. The JFH-1 strain HCV subgenomic replicon RNA expression vector (comprising the 5′ untranslated region (5′ UTR), the sequence of 57 nucleotides at the 5′ terminus of the Core protein coding region, the neomycin resistance gene, the EMCV IRES sequence, the nucleotide sequences encoding the NS3 protein, the NS4A protein, the NS4B protein, the NS5A protein and the NS5B protein, and the 3′ untranslated region (3′ UTR) of the HCV JFH-1 strain in this order from the 5′ to 3′ direction) was constructed and HCV subgenomic replicon RNA was produced in accordance with the techniques described in Kato et al. (Gastroenterology, 2003, Vol. 125, pp. 1808-1817) and International Publication No. WO 04/104198. Introduction thereof into the Huh cells and quantification of the copy number were carried out in the manner as described above. […]

Experiment [3] relates to HCV genotype 3a. The settings on record: Reesink et al., Gastroenterology, 2010; cited from earlier work.
The subject of experiment [4] is HCV genotypes 1 to 6 except for genotype 3a. The following applies: Reesink et al., Gastroenterology, 2010; cited from earlier work.
The test system of experiment [5] is HCV genotype 1b. The following applies: Mori et al., 1992; cited from earlier work.
Experiment [6] relates to HCV genotype 2a or 3a. The following applies: compared with genotype 1b; Mori et al., 1992; cited from earlier work.

With `COc1ccc2c(O[C@@H]3C[C@H]4C(=O)N[C@]5(C(=O)O)C[C@H]5/C=C\CCCCC[C@H](NC(=O)OC5CCCC5)C(=O)N4C3)cc(-c3csc(NC(C)C)n3)nc2c1` [BILN-2061], the “replication of the S310A subgenomic replicon RNAs (change ratio of HCV RNA levels)” value in experiment [1] is on record as “did not inhibit”. Also, the “replication of the JFH-1 subgenomic replicon RNA (change ratio of HCV RNA levels)” value in experiment [2] is “exert inhibitory activity”.

In the case of `COc1ccc2c(O[C@@H]3C[C@H]4C(=O)N[C@]5(C(=O)NS(=O)(=O)C6CC6)C[C@H]5/C=C\CCCCN(C)C(=O)[C@@H]4C3)cc(-c3nc(C(C)C)cs3)nc2c1C` [TMC435], in experiment [3], the “inhibitory effects on genotype 3a” value is recorded as “weak inhibitory effects”. Besides, the “inhibitory effects on genotypes 1 to 6 except for genotype 3a” value in experiment [4] is given as “strong inhibitory effects”.

As for IFN-α, the “replication of the S310A subgenomic replicon RNAs (change ratio of HCV RNA levels)” value in experiment [1] is given as “markedly inhibited”. In experiment [2], the “replication of the JFH-1 subgenomic replicon RNA (change ratio of HCV RNA levels)” value is listed as “markedly inhibited”.

As to `O=C(O)c1ccc2c(c1)nc(-c1ccc(OCc3cc(N4CCCC4=O)ccc3-c3ccc(Cl)cc3)cc1F)n2C1CCCCC1` [JTK-109], the “replication of the S310A subgenomic replicon RNAs (change ratio of HCV RNA levels)” value in experiment [1] is “markedly inhibited”. For the same compound, the “replication of the JFH-1 subgenomic replicon RNA (change ratio of HCV RNA levels)” value in experiment [2] is listed as “not to be inhibited”.

`CCC[C@H](NC(=O)[C@@H]1[C@H]2CCC[C@H]2CN1C(=O)[C@@H](NC(=O)[C@@H](NC(=O)c1cnccn1)C1CCCCC1)C(C)(C)C)C(=O)C(=O)NC1CC1` [VX-950, telaprevir]: the “replication of the S310A subgenomic replicon RNAs (change ratio of HCV RNA levels)” value in experiment [1] is “did not inhibit”.

`C[C@@]1(F)[C@H](O)[C@@H](CO)O[C@H]1n1ccc(N)nc1=O` [PSI-6130]: the “replication of the S310A subgenomic replicon RNAs (change ratio of HCV RNA levels)” value in experiment [1] is recorded as “inhibited”. The “replication of the JFH-1 subgenomic replicon RNA (change ratio of HCV RNA levels)” value in experiment [2] is on record as “inhibited”.

For the compound interferon, in experiment [5], the “therapeutic effect of interferon on genotype 1b” value is “low”. The “therapeutic effect of interferon on genotype 2a or 3a” value in experiment [6] is given as “higher”.
